According to US10351759B2, “Methods of assessing oil field saturation through use of reactive partitioning tracers” (RESTRACK AS, priority 2014, dated 2019):

What was measured:
Assay type in all cases: physicochemical
[1] = oil/water partition coefficient (K-value), static batch experiments, model oil
[2] = oil/water partition coefficient (K-value), static batch experiments, field oil phases North field 1 and North field 2; settings: ionic strength in aqueous phase 0.776, pH 6.2, 50° C.
[3] = K-values of tested compounds A to G
Text: Some tested compounds having other combinations of substitution and hydroxyalkyl group position include compounds A to G shown in FIG. 3.
These compounds have K-values measured as follows:
The K-values can vary with pH, as shown below for compounds B and F: […]

[4] = pH (aqueous phase) 6.2, ionic strength in aqueous phase 0.776, model oil (isooctane 60%/toluene 30%/1-octanol 10%), 50° C.
[5] = pH (aqueous phase) 7.0, ionic strength in aqueous phase 0.776, model oil (isooctane 60%/toluene 30%/1-octanol 10%), 50° C.
[6] = pH (aqueous phase) 8.0, ionic strength in aqueous phase 0.776, model oil (isooctane 60%/toluene 30%/1-octanol 10%), 50° C.

Molecule	oil/water partition coefficient, K-value [1, 4]	oil/water partition coefficient, K-value [1, 5]	oil/water partition coefficient, K-value [1, 6]	oil/water partition coefficient, K-value ([2]; oil phase North field 1)	oil/water partition coefficient, K-value ([2]; oil phase North field 2)	K-value ([3]; pH (aqueous phase) 6.2)	K-value ([3]; pH (aqueous phase) 7.0)	K-value ([3]; pH (aqueous phase) 8.0)	oil/water partition coefficient, K-value ([1]; pH 6.2)	oil/water partition coefficient, K-value ([1]; pH 7)	oil/water partition coefficient, K-value ([1]; pH 8)
CCCOC(=O)c1ccc(CO)cc1F [Proply ester of 2-fluoro-4-(hydroxymethyl) benzoic acid]	41.7	44.2	48.7	5.9	7.5	–	–	–	–	–	–
CCOC(=O)c1cc(F)cc(CO)c1 [F, Ethyl ester of 3-fluoro-5-hydroxymethyl benzoic acid]	–	–	–	–	–	6.7	6.3	6.1	–	–	–
2,3-difluoro hydroxybenzoic acid [reference compound]	0.0	0.0	0.0	–	–	–	–	–	–	–	–
CCOC(=O)c1ccc(CO)cc1F [Ethyl ester of 2-fluoro-4-(hydroxymethyl) benzoic acid]	10.9	11.2	11.8	1.6	2.5	–	–	–	–	–	–
COC(=O)c1ccc(CO)cc1F [Methyl ester of 2-fluoro-4-(hydroxymethyl) benzoic acid]	3.2	3.4	3.3	0.6	0.8	–	–	–	–	–	–
CCCCOC(=O)c1ccc(CO)cc1F [Butyl ester of 2-fluoro-4-(hydroxymethyl) benzoic acid]	127.5	126.1	132.2	18.7	23.6	–	–	–	–	–	–
O=C(O)c1ccc(CO)cc1F [2-fluoro-4-(hydroxymethyl) benzoic acid, 2-Fluoro-4-(hydroxymethyl)benzoic acid]	–	–	–	0.0	0.0	–	–	–	0.0	0.0	0.0
COC(=O)c1c(F)ccc(CO)c1F [B, Methyl ester of 2-6-difluoro-3-hydroxymethyl benzoic acid]	–	–	–	–	–	3.0	2.8	2.4	–	–	–
